{"source": "patent US12187755B2", "about": "“Minimal saponin analogues, synthesis and use thereof” (MEMORIAL SLOAN-KETTERING CANCER CENTER, priority 2014, dated 2025)", "key": {"[1]": {"test": "toxicity assessment by mouse weight loss after first vaccination", "type": "in vivo", "settings": "three-component vaccine, median percent weight loss", "protocol": "(§1) Groups of five mice (C57BL/6J, female, 6-8 weeks of age) were vaccinated with a three-component vaccine consisting of MUC1-KLH ([…]) and OVA ([…]), or a four-component vaccine that also included GD3-KLH ([…]). Antigens were co-administered with the adjuvant of interest ([…]) or without adjuvant (no-adjuvant control) in phosphate buffered saline (PBS, […]) via subcutaneous injections on days 0, 7, and 14, followed by a booster on day 65. Mouse sera were collected at day 72 and antibody titers against each antigen were determined by ELISA. Statistical significance of each antibody response compared to the no-adjuvant control was assessed using a two-tailed unpaired Student's t-test with CI=95%. As an initial, general assessment of toxicity, mouse weight loss was monitored on days 0, 1, 2, 3, and 7 after the first vaccination. These animal experiments were conducted as described in MSKCC Institutional Animal Care and Use Committee (IACUC) protocol #97-11-051."}, "[2]": {"system": "C57BL/6J mice", "test": "preclinical mouse vaccination model, three-component vaccine (MUC1-KLH, OVA), antibody titers by ELISA", "type": "in vivo", "settings": "three-component vaccine MUC1-KLH + OVA, s.c. days 0, 7, 14, booster day 65, sera day 72", "protocol": "A radioiodine (^131I) was introduced into the QS-21 saponin scaffold to enable in vivo biodistribution studies. The non-radiolabeled aryl iodide 6 (SQS-0-0-5-18) by acylation of amine 2 (SQS-0-0-5-11) was synthesized (FIG. 1B). Because no in vitro model exists to assess adjuvant activity, biological evaluation of aryl iodide 6 was carried out in a preclinical mouse vaccination model involving a multi-antigen formulation comprised of the immunogenic peptide MUC1 (prostate and breast cancer antigen, non-glycosylated tandem repeat) conjugated to the highly immunogenic KLH carrier protein (MUC1-KLH) and OVA, a reliable immunogen that induces both antibody and T-cell responses in mice. Antibody responses against each of the three antigens, co-administered with the adjuvant of interest, were determined by ELISA.\nas §1"}, "[3]": {"test": "in vivo biodistribution of radioiodinated saponins", "design": "species or system mouse", "settings": "with OVA, 24-96 h", "protocol": "The aryl tin saponins (7, 9, 17, S9) were synthesized from the corresponding amine precursors (2, S4, 15, S8) by acylation with N-succinimidyl-4-(trimethylstannyl)benzoate 4 (Et3N, DMF, 21° C., 1-2.5 h). Radiolabeling was achieved by iodination of the aryl tin saponin (20 μg) with [^131I]—NaI and chloramine-T (methanol, 21° C., 1 min), followed by immediate HPLC purification. Solvents were removed by rotary evaporation at 35° C. and the radioiodinated probes were formulated in 0.9% saline for biodistribution studies. Co-elution of the radioiodinated probes with the corresponding cold saponins was used for quality control analysis.\nGroups of five mice (naive, C57BL/6J female, 8-10 weeks of age) were injected subcutaneously with the radioiodinated saponin adjuvants of interest (˜[…]), the corresponding non-radiolabeled saponin ([…]), and OVA ([…]) in PBS ([…]). Mice were sacrificed at 24 h, 72 h, and 96 h post-injection. Tissues and organs were harvested and analyzed for distribution of radioactivity normalized to the weight of the organ (% ID/g, percent injected dose per gram). Statistical significance of the difference in recoveries (% ID/g) for the active and attenuated adjuvant was assessed for each tissue or organ using two-tailed unpaired Student's t-test with CI=95%."}, "[4]": {"settings": "in vivo; cited from earlier work"}, "[5]": {"test": "in vivo fluorescence imaging with fluorescein-labeled saponin and OVA-A647", "design": "species or system mouse", "settings": "24 h post-injection", "protocol": "To address this problem, in vivo fluorescence imaging experiments with fluorescein-labeled active adjuvant 3 (SQS-0-0-5-12) and Alexa-647-conjugated OVA (OVA-A647) were conducted.\nWhole-body imaging was performed at 24 h post-injection with a Maestro Imaging System. At 24 h post-injection, mice were sacrificed and the left and right lymph nodes were dissected and imaged separately."}, "[6]": {"system": "mice", "test": "mouse vaccination with OVA antigen alone (FIG. 7B)", "type": "in vivo", "settings": "OVA (20 μg)", "protocol": "FIG. 7A: Synthesis of negative control saponin 8 (SQS-0-3-7-18): (i) SOCl2, pyridine, CH2Cl2/DMF, 21° C., 2 h, 91%; (ii) 1. H2 (50 psi), Pd/C (Degussa), THF/EtOH (1:1), 21° C., 24 h; 2. TFA/H2O (4:1), 0° C., 3.3 h, RP-HPLC, 50% (2 steps); (iii) 4, Et3N, DMF, 21° C., 3 h, RP-HPLC, 68%; (iv) 5, Et3N, DMF, 21° C., 2.5 h, RP-HPLC, 53%. FIG. 7B: Biological evaluation of aryl iodide saponin 8 with OVA antigen. Mice were vaccinated with OVA (20 μg) according to the general procedure discussed herein. Median titers represented as red horizontal bars. Statistical significance compared to SQS-21 was assessed using two-tailed unpaired Student's t-test with CI=95%: *=0.01≤p≤0.05 (significant).\nGroups of five mice (C57BL/6J, female, 6-8 weeks of age) were vaccinated with a three-component vaccine consisting of MUC1-KLH ([…]) and OVA ([…]), or a four-component vaccine that also included GD3-KLH (5 mg). […] Mouse sera were collected at day 72 and antibody titers against each antigen were determined by ELISA. Statistical significance of each antibody response compared to the no-adjuvant control was assessed using a two-tailed unpaired Student's t-test with CI=95%. As an initial, general assessment of toxicity, mouse weight loss was monitored on days 0, 1, 2, 3, and 7 after the first vaccination. […]"}, "[7]": {"test": "biodistribution of radioiodinated ovalbumin with and without adjuvant 6", "type": "in vivo, mouse", "settings": "presence and absence of active adjuvant 6", "protocol": "In a complementary experiment, the biodistribution of [^131I]-OVA in the presence and absence of active adjuvant 6 was examined (FIG. 10). […] Thus, the influence of 6 upon OVA antigen biodistribution could not be assessed effectively and an alternative experimental approach was required.\nRadiolabeled ovalbumin was synthesized by treating 20 μg of ovalbumin with [^131I]—NaI and Chloramine-T in methanol. The reaction mixture was diluted with 2 mL phosphate buffered saline (PBS) followed by centrifugal filtration at 2800 rpm for 12 min using a 30 kDa molecular weight cutoff filter. This process was repeated twice and the concentrated compound was then formulated in 1 mL 0.9% saline for biodistribution studies."}}, "data": [{"molecule": "C[C@H]1O[C@@H](OC2C(O)C(NC(=O)CCCCCNC(=O)c3ccc(I)cc3)[C@H](CO)O[C@H]2OC(=O)C23CCC(C)(C)CC2C2=CCC4C5(C)CC[C@H](OC6OC(C(=O)O)[C@@H](O)[C@H](OC7OC[C@@H](O)[C@H](O)[C@@H]7O)[C@@H]6O[C@@H]6OC(CO)C(O)[C@@H](O)[C@@H]6O)[C@](C)(C=O)[C@@H]5CC[C@]4(C)[C@]2(C)C[C@@H]3O)C(O)C(O)C1O[C@@H]1OCC(O)C(O)C1O", "note": "(some centres unmarked) [compound 6]", "values": [{"measurement": "toxicity assessed by mouse weight loss", "setting": "[1]", "result": "reduced toxicity compared to QS-21"}, {"measurement": "antibody titers (anti-KLH, anti-MUC1, anti-OVA IgG)", "setting": "[2]", "result": "antibody titers comparable to both NQS-21"}, {"measurement": "localization and retention at injection site and lymph nodes (conclusion)", "setting": "[3]", "result": "localizes to and is retained at the injection site and lymph nodes"}]}, {"molecule": "C[C@H]1O[C@@H](OC2C(O)C(NC(=O)CCCCCN)[C@H](CO)O[C@H]2OC(=O)C23CCC(C)(C)CC2C2=CCC4C5(C)CC[C@H](OC6OC(C(=O)O)[C@@H](O)[C@H](OC7OC[C@@H](O)[C@H](O)[C@@H]7O)[C@@H]6O[C@@H]6OC(CO)C(O)[C@@H](O)[C@@H]6O)[C@](C)(C=O)[C@@H]5CC[C@]4(C)[C@]2(C)C[C@@H]3O)C(O)C(O)C1O[C@@H]1OCC(O)C(O)C1O", "note": "(some centres unmarked) [compound 2]", "values": [{"measurement": "adjuvant activity", "setting": "[4]", "result": "inactive"}, {"measurement": "OVA-A647 at the site of injection when co-injected with the adjuvant", "setting": "[5]", "result": "observed at the site of injection"}, {"measurement": "OVA-A647 localization to the nearest draining lymph nodes when co-injected with the adjuvant", "setting": "[5]; dissected lymph nodes", "result": "increased accumulation of OVA-A647 with 3 but not 2"}]}, {"molecule": "CC1(C)CCC2(C(=O)NCCNC(=O)c3ccc(I)cc3)C(C1)C1=CCC3C4(C)CC[C@H](OC5OC(C(=O)O)[C@@H](O)[C@H](OC6OC[C@@H](O)[C@H](O)[C@@H]6O)[C@@H]5OC5OC(CO)[C@H](O)[C@H](O)[C@@H]5O)[C@](C)(C=O)[C@@H]4CC[C@]3(C)[C@]1(C)C[C@@H]2O", "note": "(some centres unmarked) [compound 8]", "values": [{"measurement": "adjuvant activity with OVA antigen", "setting": "[6]", "result": "poor adjuvant activity"}]}, {"molecule": "[131I]-OVA: radioiodinated ovalbumin antigen (protein, UniProt P01012 2-386, looked up, 131I radiolabel, radioiodinated ovalbumin antigen) Ovalbumin: GSIGAASMEFCFDVFKELKVHHANENIFYCPIAIMSALAMVYLGAKDSTRTQINKVVRFDKLPGFGDSIEAQCGTSVNVHSSLRDILNQITKPNDVYSFSLASRLYAEERYPILPEYLQCVKELYRGGLEPINFQTAADQARELINSWVESQTNGIIRNVLQPSSVDSQTAMVLVNAIVFKGLWEKAFKDEDTQAMPFRVTEQESKPVQMMYQIGLFRVASMASEKMKILELPFASGTMSMLVLLPDEVSGLEQLESIINFEKLTEWTSSNVMEERKIKVYLPRMKMEEKYNLTSVLMAMGITDVFSSSANLSGISSAESLKISQAVHAAHAEINEAGREVVGSAEAGVDAASVSEEFRADHPFLFCIKHIATNAVLFFGRCVSP", "values": [{"measurement": "thyroid uptake of [131I]-OVA", "setting": "[7]", "result": "thyroid uptake was also high"}]}]}
